Measurements as given in patent US20230218618A1, “ADMINISTRATION OF SUMO-ACTIVATING ENZYME INHIBITOR AND ANTI-CD38 ANTIBODIES” (MILLENNIUM PHARMACEUTICALS, INC., priority 2020, published 2023).

System: Daudi human Burkitt’s Lymphoma cell line
Assay: Study 7: Daudi xenograft human Burkitt's lymphoma subcutaneous tumor model (daratumumab or AB79)
Format: in vivo, CB17 SCID mice
Procedure: Low tumor volumes can cause problems with the data analysis, so all measurements below 25 cubic mm (including 0 values) were excluded from the analysis. After this exclusion step, the tumor volume was assumed to follow an exponential growth model. More specifically, for a given animal and treatment group,
Pairwise comparisons were performed, where the mean growth rates were compared for various pairs of treatment conditions. The results were summarized using the growth rate inhibition (GRI). Suppose µT and µC are the mean tumor growth rates for the treatment and reference groups, respectively. Define
Here, µAB, µA, µB, and µControl are the mean growth rates for the combination, drug A, drug B, and control groups, respectively. As before, µv is the mean tumor growth rate for the vehicle group, which in most cases is the same as the control group. The standard error of the synergy score was calculated as the square root of the sum of squared standard errors across the four groups. The degrees of freedom were estimated using the Welch-Satterthwaite equation. A hypothesis test was performed to determine if the synergy score differed from 0. P-values were calculated by dividing the synergy score by its standard error and tested against a t-distribution (two-tailed) with the above-calculated degrees of freedom. A P value of less than 0.05 is statistically significant.
The combination results can be interpreted as follows. Statistically significant negative synergy scores indicate a synergistic combination (“Syn.”). Statistically significant positive synergy scores indicate a sub-additive combination (“Sub-add.”) when the combination performs better (i.e. has a lower growth rate) than the best performing single agent. Statistically significant positive synergy scores indicate an antagonistic combination (“Antag.”) when the combination performs worse than the best performing single agent. Scores that are not statistically significant should be considered additive (“Add.”).
Daudi is a human Burkitt’s Lymphoma cell line. A Daudi human xenograft tumor model was generated by subcutaneous inoculation with 2.0 × 10^6 Daudi cells (cell suspension) in 7 weeks old female CB17 SCID mice (Charles River Laboratories, 251 Ballardvale St., Wilmington, MA) in the flank. When the mean tumor volume reached approximately 110 mm3, the animals were randomized into one vehicle control and six treatment groups (n=8/group). Mice were then dosed with 20% HPβCD or Compound I-263a and/or daratumumab or AB79 over a 21-day period. Tumor growth and body weight were measured twice per week during the treatment and post-treatment periods, and mice were humanely euthanized once they had reached their humane endpoint.
A 0.75 mg/mL stock solution of I-263a was formulated weekly in 20% HPβCD and administered intravenously (IV) based on an average body weight using a 0.2 mL dosing volume. Final doses of I-263a received were 7.5 mg/kg. I-263a was administered on a BIW schedule for 3 weeks (Days 1, 4, 8, 11, 15, and 18). Daratumumab (anti-CD38 antibody) (Myoderm Medical Supplies, 48 E Main St., Norristown, PA 19401) was purchased at the beginning of the study and stored at 4° C. according to manufacturer’s instructions. Final dose of daratumumab received was 7.5 mg/kg based on average body weight. Daratumumab was administered intraperitoneally (IP) using a 0.1 mL dosing volume, on a BIW schedule for 3 weeks (Days, 1, 4, 8, 11, 15, and 18). AB79 was formulated on the day of dosing in 0.9% saline and administered intraperitoneally (IP) using a 0.1 mL dosing volume, on a BIW schedule for 3 weeks (Days, 1, 4, 8, 11, 15, and 18). Final dose of AB79 was 7.5 mg/kg based on average body weight.
Tumors were measured twice weekly using Vernier calipers. Tumor volumes were calculated using standard equation: V = W2 × L/2, where V = volume, W = width, and L = length for the tumor. […]

## AB79: human monoclonal antibody that binds specifically to the CD38 transmembrane glycoprotein
AB79 7.5 mg/kg BIW IP
  Tumor Volume on Day 22 (±SEM): 1033.8 (±208.8)
AB79 7.5 mg/kg BIW IP, vs vehicle
  GRI%: 29%
Each agent 7.5 mg/kg BIW, I-263a p = 0.105, daratumumab p < 0.001, AB79 p = 0.002, both combinations p < 0.001, data up to Day 22
  Tumor growth relative to vehicle-treated tumors (pairwise comparison): tumor growth inhibition
